# pIC50: −log10 of the molar value.
# Target: Tyrosine-protein kinase BTK (Homo sapiens, UniProt Q06187)
# Assay: Inhibition of BTK (unknown origin) using peptide substrate after 1 hr by HTRF assay
# Chain of Tyrosine-protein kinase BTK (Q06187 whole entry): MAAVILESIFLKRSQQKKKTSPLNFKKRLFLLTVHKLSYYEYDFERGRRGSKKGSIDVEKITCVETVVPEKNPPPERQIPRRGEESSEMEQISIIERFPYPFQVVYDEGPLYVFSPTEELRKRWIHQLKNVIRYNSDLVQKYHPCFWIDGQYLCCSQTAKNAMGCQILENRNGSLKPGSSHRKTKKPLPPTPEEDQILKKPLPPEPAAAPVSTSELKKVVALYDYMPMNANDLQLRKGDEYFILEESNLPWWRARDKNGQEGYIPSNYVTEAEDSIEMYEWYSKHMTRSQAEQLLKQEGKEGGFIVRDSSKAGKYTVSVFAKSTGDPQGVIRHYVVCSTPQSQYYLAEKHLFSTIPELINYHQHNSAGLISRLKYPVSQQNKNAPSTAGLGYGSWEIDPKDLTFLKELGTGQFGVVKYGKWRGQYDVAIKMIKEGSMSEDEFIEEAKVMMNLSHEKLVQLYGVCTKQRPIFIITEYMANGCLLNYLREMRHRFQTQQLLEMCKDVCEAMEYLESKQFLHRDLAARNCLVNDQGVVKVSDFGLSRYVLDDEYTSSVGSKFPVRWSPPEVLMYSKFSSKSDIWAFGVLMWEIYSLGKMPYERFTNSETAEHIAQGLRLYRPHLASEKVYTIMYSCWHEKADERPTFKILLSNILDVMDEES
row,SMILES,pIC50
1,O=C(Nc1ccc(-c2nn(C3CCC(C(=O)O)CC3)c3ccncc23)cc1)c1ccccc1 (configuration not stated),≤ 5.00
2,C=CC(=O)N1CCC[C@@H](n2nc(-c3ccc(Oc4ccccc4)cc3)c3cnccc32)C1,≥ 8.00
3,C=CC(=O)N1CC[C@H](n2nc3ccncc3c2-c2ccc(Oc3cccc(Cl)c3Cl)cc2)C1,≥ 8.00
4,CC#CC(=O)N1CCC[C@@H](n2nc(-c3ccc(C(=O)Nc4ccccn4)cc3)c3cnccc32)C1,6.00 to 7.00
5,C=CC(=O)N1CCC[C@H](n2nc3ccncc3c2-c2ccc(Oc3cccc(Cl)c3Cl)cc2)C1,≥ 8.00
6,C=CC(=O)N1CC[C@@H](n2nc(-c3ccc(Oc4cccc(OC)c4C)cc3)c3cnccc32)C1,7.00 to 8.00

# Second part, the molecule after the results:
row,pIC50,SMILES
1,5.00 to 6.00,C=CC(=O)N1CC[C@@H](n2nc(-c3ccc(Oc4cccc(OC)c4F)cc3)c3c2CCN(C(C)=O)C3)C1
2,≥ 8.00,C=CC(=O)N1CC[C@@H](n2nc(-c3ccc(Oc4cccc(OC)c4Cl)cc3)c3cnccc32)C1
3,7.00 to 8.00,C=CC(=O)N1CCC[C@@H](n2nc(-c3ccc(Oc4cccc(Cl)c4)cc3)c3cnccc32)C1
4,≥ 8.00,C=CC(=O)N1CC[C@@H](n2nc(-c3ccc(Sc4cccc(F)c4)cc3)c3cnccc32)C1
5,≥ 8.00,COc1cccc(Oc2ccc(-c3nn([C@@H]4CCCN(C(=O)OC(C)(C)C)C4)c4c(OC)cncc34)cc2)c1F
6,6.00 to 7.00,C=CC(=O)N1CCC[C@@H](n2nc(-c3ccc(Oc4cccc(OC)c4F)cc3)c3cncc(OC)c32)C1

# — ChEMBL document CHEMBL4190358, “Bruton's Tyrosine Kinase Inhibitors for the Treatment of Autoimmune Diseases and Cancers” (ACS Med Chem Lett, 2017)
